From PubChem BioAssay AID2060344 (Molecular Pharmacology Branch, DTP, NCI, 2025) come the findings set out here.

In this assay the test system is SK-MEL-2 multi-cell spheroids, viability. Briefly: Anticancer human tumor SK-MEL-2 cell line growth inhibition [TAK].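 As to all read-outs here: spheroids exposed to drugs for seven days before readout.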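 As to viability, T/C: percent of DMSO vehicle control luminescence so 100% = untreated viability.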 Particulars: for viability, T/C: stronger effect = lower value. An excerpt:
Combinatorial screen of targeted agents with TAK-243 and ipatasertib in multi-cell type tumor spheroids
A high-throughput screen of multi-cell type tumor spheroids was designed to identify active combinations of targeted small molecules and TAK-243 or ipatasertib. Complex spheroids include a stromal component modeled by human endothelial cells (HUVEC) and fibroblasts modeled by human mesenchymal stem cells (MSCs). The concentration ranges selected for each drug and investigational agent were based upon clinically achievable concentrations if the clinical Cmax of the agent was known.
Compounds. The drugs and investigational agents: TAK-243 (785004), ipatasertib (767898), everolimus (733504), selumetinib (741078), bortezomib (756655), trametinib (758246), ixazomib (758254), vemurafenib (761431), dabrafenib (764134), sapanisertib (764658), alpelisib (765974), and copanlisib (816437), were obtained from the National Cancer Institute (NCI) Developmental Therapeutics Program Chemical Repository. The FDA-approved anticancer drug set is available from the NCI Developmental Therapeutics Program. […] The stock solutions were prepared in dimethyl sulfoxide (DMSO, Sigma-Aldrich, St. Louis, MO, cat. D2650) at 800-fold the tested concentration and stored at -70 degrees C prior to their use. All drugs and investigational agents were tested over a range starting from a high concentration at or near the clinical Cmax and decreasing in half-log increments. If the clinical Cmax for an agent had not been determined, the highest concentration tested was 10 microM.
NCI60 Cell Culture. NCI60 cell lines were obtained from the NCI Developmental Therapeutics Program Tumor Repository. For each lot of cells, the Repository performed Applied Biosystems AmpFLSTR Identifiler testing with PCR amplification to confirm consistency with the published Identifier STR profile for each cell line. Cells were kept in continuous culture for no more than 20 passages. The optimal seeding densities for each of the cell lines at each time point assessed were determined prior to performing the concentration response studies. Briefly, the NCI60 human tumor lines were grown as monolayers in RPMI 1640 medium supplemented with 10% FBS and 2 mmol/L L-glutamine.
An additional 2 lines were from the NCI60 cell line panel including melanomas, MALME-3M and SK-MEL-2. Pooled donor human umbilical vein endothelial cells (HUVEC, Lonza, cat. CC-2519) and human mesenchymal stem cells (hMSC, Lonza, cat. PT-2501) were purchased from Lonza (Walkersville, MD).
PDMR cell lines were grown in complete medium (DC medium): Dulbecco's modified Eagle's medium (DMEM)/F12 supplemented with 5% fetal bovine serum (FBS), 2 mM L-glutamine, 100 U/mL penicillin and 100 µg/ml streptomycin, 0.4 µg/ml hydrocortisone, 10 ng/ml epidermal growth factor (EGF) recombinant human protein, 24 µg/mL adenine, and 0.1 mg/mL primocin. During culture from frozen stock vials, PDMR cells were cultured in the same medium containing 10 µM Y-27632 (see Table 3). The PDCs were cultured in complete DMEM/F12 media without 10 microM Y-27632 dihydrochloride for at least two passages prior to the screen. The pooled donor HUVEC and hMSC were cultured in endothelial cell growth medium 2 (PromoCell, Heidelberg, Germany, cat. C-22011) and mesenchymal stem cell growth medium 2 (PromoCell, cat. C-28009), respectively. For all experiments, HUVEC and hMSC were used at passages </=5.
For the pre-screen, cell seeding densities were determined from a titration spanning the range from 5,000 to 313 cells per well. The mct-spheroids including 60% malignant cells, 25% HUVEC and 15% MSC dispensed as a mixture into U-bottom Ultra-Low Attachment 384-well plates (Corning, NY)
High-throughput Drug Combination Screening.
Prior to their inoculation into 384-well plates, malignant cells, HUVEC, and hMSC were removed from T flasks using TrypLE express (Thermo Fisher Scientific, cat. 12605036) and harvested by centrifugation for 5 min at 233 x g. […]

pIC50: −log10 of the molar value. “And” between values parts separate entries of the source, which are not always exact repeats. Identical values can stand only once.

What is called viability, T/C is the ratio of treated to control. One may read the pIC50 as the negative decadic logarithm of the IC50, by convention in mol/L. With `CC(C)CC(NC(=O)CNC(=O)c1cc(Cl)ccc1Cl)B1OC(=O)CC(CC(=O)O)(C(=O)O)O1` (centres undefined), the viability, T/C reads like this: (compound 0.000316 µM) 110% and 95.1%; (compound 0.001 µM) 94.6% and 97.2%; (compound 0.00316 µM) 98% and 93.9%; (compound 0.01 µM) 79.3% and 75.7%; (compound 0.0316 µM) 24.6% and 26%; (compound 0.1 µM) 6.45% and 4.25%. Besides, where the note is “curve of compound”, the pIC50 was 7.73 and 7.74.

Consider `CCCS(=O)(=O)Nc1ccc(F)c(C(=O)c2c[nH]c3ncc(-c4ccc(Cl)cc4)cc23)c1F` + CC(C)NCC(C(=O)N1CCN(c2ncnc3c2C(C)CC3O)CC1)c1ccc(Cl)cc1, for which the pIC50 reads like this: (curve of first compound, second compound 0.3 µM) 4.59; (curve of first compound, second compound 0.949 µM) 4.62; (curve of first compound, second compound 3 µM) 4.88; (curve of first compound, second compound 9.49 µM) 4.19; (curve of first compound, second compound 30 µM) 4.73. In addition, the viability, T/C is, setting by setting: (second compound 0.3 µM, first compound 0.316 µM) 127%; (second compound 0.3 µM, first compound 1 µM) 108%; (second compound 0.3 µM, first compound 3.16 µM) 105%; (second compound 0.3 µM, first compound 10 µM) 118%; (second compound 0.3 µM, first compound 31.6 µM) 15.1%; (second compound 0.3 µM, first compound 100 µM) 57.5%. Besides, the viability, T/C was 121% (second compound 0.949 µM, first compound 0.316 µM); 110% (second compound 0.949 µM, first compound 1 µM); 107% (second compound 0.949 µM, first compound 3.16 µM); 80.3% (second compound 0.949 µM, first compound 10 µM); 31.6% (second compound 0.949 µM, first compound 31.6 µM); 49.3% (second compound 0.949 µM, first compound 100 µM). For the same molecule, the viability, T/C is, setting by setting: (second compound 3 µM, first compound 0.316 µM) 115%; (second compound 3 µM, first compound 1 µM) 110%; (second compound 3 µM, first compound 3.16 µM) 105%; (second compound 3 µM, first compound 10 µM) 61.1%; (second compound 3 µM, first compound 31.6 µM) 14.3%; (second compound 3 µM, first compound 100 µM) 10.9%. Also, the viability, T/C runs as follows: (second compound 9.49 µM, first compound 0.316 µM) 112%; (second compound 9.49 µM, first compound 1 µM) 120%; (second compound 9.49 µM, first compound 3.16 µM) 107%; (second compound 9.49 µM, first compound 10 µM) 114%; (second compound 9.49 µM, first compound 31.6 µM) 120%; (second compound 9.49 µM, first compound 100 µM) 10.4%. Further, the viability, T/C is, setting by setting: (second compound 30 µM, first compound 0.316 µM) 121%; (second compound 30 µM, first compound 1 µM) 124%; (second compound 30 µM, first compound 3.16 µM) 64.3%; (second compound 30 µM, first compound 10 µM) 119%; (second compound 30 µM, first compound 31.6 µM) 2.99%; (second compound 30 µM, first compound 100 µM) 2.24%.

As for `CC(C)CC(NC(=O)C(Cc1ccccc1)NC(=O)c1cnccn1)B(O)O` (centres undefined), the viability, T/C is, setting by setting: (compound 31.6 pM) 117% and 109%; (compound 0.0001 µM) 96.5% and 94.3%; (compound 0.000316 µM) 101% and 98.5%; (compound 0.001 µM) 113% and 109%; (compound 0.00316 µM) 114% and 110%; (compound 0.01 µM) 88.5% and 99.6%. Moreover, where the note is “curve of compound”, the pIC50 is less than 8.00.

On to `COC1CC2CCC(C)C(O)(O2)C(=O)C(=O)N2CCCCC2C(=O)OC(C(C)CC2CCC(OCCO)C(OC)C2)CC(=O)C(C)C=C(C)C(O)C(OC)C(=O)C(C)CC(C)C=CC=CC=C1C` (centres undefined), for which the viability, T/C was 85% and 118% (compound 0.000316 µM); 66.2% and 89% (compound 0.001 µM); 57.4% and 74.4% (compound 0.00316 µM); 55.8% and 73.2% (compound 0.01 µM); 52.8% and 58.8% (compound 0.0316 µM); 47.7% and 69.9% (compound 0.1 µM). In addition, the pIC50 (curve of compound) is less than 7.00.

For the molecule `CCCS(=O)(=O)Nc1ccc(F)c(C(=O)c2c[nH]c3ncc(-c4ccc(Cl)cc4)cc23)c1F`, the viability, T/C runs as follows: (compound 0.316 µM) 105% and 130%; (compound 1 µM) 102% and 129%; (compound 3.16 µM) 103% and 113%; (compound 10 µM) 83% and 41.8%; (compound 31.6 µM) 117% and 58.2%; (compound 100 µM) 106% and 71.2%. The pIC50 (curve of compound) is less than 4.00.

As for `CC(C)NCC(C(=O)N1CCN(c2ncnc3c2C(C)CC3O)CC1)c1ccc(Cl)cc1` (centres undefined), the pIC50 (compound alone, run of 02/20/2020) was less than 4.52.
